Drawing on a melting point compilation (Tetko et al.; mined from patent text by program, amines drawn as free bases though some values may be those of a salt), this text covers melting point for 33 compounds.

Some results are limits rather than exact numbers.

In the case of `CC(C)(C)c1ccc(N(CCCOc2ccc(C(=O)O)cc2)C(=O)c2ccc3c(c2)OCO3)cc1`, the melting point (in general, the temperature, or range, at which the solid turns liquid) fell in the range of 199 to 203 °C.

`O=[N+]([O-])c1cc(S(=O)(=O)N(CCO)CCO)sc1Cl`: the melting point came out at 100 °C.

For the compound `COc1ccc(S(=O)(=O)Nc2ccccc2NC(C)=O)cc1`, the melting point was in the range of 160 to 161 °C.

Compound `COc1cc2c(Nc3ccc(Br)cc3F)ncnc2cc1OCCCS(C)(=O)=O` returned a melting point above 250 °C.

In turn, `CC(C)Cc1nc2sc3c(NCc4cccnc4)ncnc3c2c2c1CCC(C)(C)C2` had a melting point of 230 °C.

For the compound `COP(=O)(Cc1ccc(NC(=O)/C=C/c2cnn(C)c2-c2ccc(F)cc2)cc1)OC`, the melting point lay within 209 to 210 °C.

As to `CCCCCCCSc1ccc(-c2ccc(C#N)cc2)cc1`, the melting point is 64.4 °C.

Compound `CC1CCC(C(C)C)C(OC(=O)C2C(=O)N(Cc3ccc(Br)cc3F)C(=O)c3cccn32)C1` (stereo not drawn) showed a melting point of 98 to 99 °C.

The compound `Fc1cc(-c2cc(C(F)(F)F)n3ncc(-c4cccnc4)c3n2)ccc1C(F)(F)F` displayed a melting point of 162 °C.

Regarding `Nc1ncc(C2CCN(c3ccc([N+](=O)[O-])cc3)CC2)c(N)n1`, the melting point was above 250 °C.

In the case of `Cc1cc(C)cc(CCCn2c(=O)c3c(N4CCN(C)CC4)cc(Cl)cc3n(Cc3ccccc3)c2=O)c1`, the melting point is 67 to 73 °C.

Turning to `O=C(O)c1[nH]c2cc(Cl)cc(Cl)c2c1C=C1CON(c2ccccc2)C1=O`, the melting point was above 250 °C.

Consider `CN1CCN(C2=NC(=O)C(=Cc3cccc(-c4ccc(O)c(C56CC7CC(CC(C7)C5)C6)c4)c3)S2)CC1`, for which the melting point was 291 to 294 °C.

In turn, `COc1cc(Nc2c(C#N)cnc3cc(OCC4CCCCO4)c(OC)cc23)c(Cl)cc1Cl` (stereo not drawn) returned a melting point of 193 to 196 °C.

As to `Clc1nc2ccccc2nc1OCCOc1ccccc1`, the melting point lay within 99.5 to 102 °C.

Turning to `CC1C(=O)CSCC1=O`, the melting point is 131 to 133 °C.

As to `C=C1SC(=O)N(c2ccc3cc(-c4cc5c(c(-c6ccncc6)c4)OCO5)ccc3c2)C1=O`, the melting point was in the range of 304 to 307 °C.

Regarding `O=C1c2cccc3cccc(c23)C(=O)N1C1OC(CO)C(O)C(O)C1O` (stereo not drawn), the melting point was 285 to 286 °C.

As to `Cc1ccc(NC(=O)c2cccc(C(F)(F)F)c2)cc1/C=C/n1cnc2c(Nc3ccc(P(C)(C)=O)cc3)ncnc21`, the melting point lay in the range of 230 to 234 °C.

Consider `Cc1nc2c3c(ccn2c1C)C(=O)C(O)C(c1ccccc1)N3` (stereo not drawn), for which the melting point was 232 to 234 °C.

`CCC(CCCCCCCCC(C)(C)CO)N1C(=O)c2cccc([N+](=O)[O-])c2C1=O` (stereo not drawn) registered a melting point of 66 to 68 °C.

The compound `CN1C2CCC1CC(n1cc(-c3ccc(Oc4ccccc4)cc3)c3c(N)ncnc31)C2` (stereo not drawn) had a melting point of 238 to 250 °C.

The compound `CC(C)Oc1cc(-n2c(=O)c(F)c(C(F)(F)F)n(C)c2=O)c(F)cc1Cl` showed a melting point of 104 to 107 °C.

Compound `CC1CCC(C(C)C)C(OC(=O)C(O)c2ccccc2)C1` (single isomer, unassigned; (-)) had a melting point of 50 to 51 °C.

The compound `C=C=COc1ccccc1S(N)(=O)=O` displayed a melting point of 94 to 95 °C.

`CCCN(Cc1ccc(-c2ccccc2-c2nnn[nH]2)cc1)c1ccncc1C(=O)O` returned a melting point of 195 to 200 °C.

`FC(F)Oc1cccc2cnsc12` came in with a melting point of 58 to 59 °C.

`CC(=O)OC1CSC(Oc2cncc(-c3ccc(C)o3)c2)C(OC(C)=O)C1OC(C)=O` (stereo not drawn) gave a melting point of 124 °C.

In turn, `O=C(NC1CC1)c1ccc(-c2ccc3nnn(Cc4ccc5ncccc5c4)c3n2)cc1F` registered a melting point of 193 to 195 °C.

For `CC(C)CCCC(C)Cc1nc2c3ccsc3c3sccc3c2nc1CC(C)CCCC(C)C` (stereo not drawn), the melting point is 57.5 to 58.7 °C.

`CCOC(=O)C1=C(C)NC(C)=C(C(=O)OCC)C1c1ccccc1/C=C/C#N` showed a melting point of 172 to 173 °C.

For the compound `CCn1c2ccc3ccccc3c2c2cccc(C=O)c21`, the melting point lay in the range of 148 to 149 °C.

Compound `Cc1nc(Cn2nnnc2-c2cccc(Cl)c2Cl)cs1` had a melting point of 156 to 158 °C.
